In BindingDB's records for doi:10.1111/j.1476-5381.1995.tb13240.x (Smithkline Beecham Pharmaceuticals, 1995):
pKi: −log10 of the molar value.

Columns and labels:
[1] = molecular target: T1, 5-hydroxytryptamine receptor 2C (Homo sapiens, UniProt P28335)
T1 sequence (P28335 whole entry): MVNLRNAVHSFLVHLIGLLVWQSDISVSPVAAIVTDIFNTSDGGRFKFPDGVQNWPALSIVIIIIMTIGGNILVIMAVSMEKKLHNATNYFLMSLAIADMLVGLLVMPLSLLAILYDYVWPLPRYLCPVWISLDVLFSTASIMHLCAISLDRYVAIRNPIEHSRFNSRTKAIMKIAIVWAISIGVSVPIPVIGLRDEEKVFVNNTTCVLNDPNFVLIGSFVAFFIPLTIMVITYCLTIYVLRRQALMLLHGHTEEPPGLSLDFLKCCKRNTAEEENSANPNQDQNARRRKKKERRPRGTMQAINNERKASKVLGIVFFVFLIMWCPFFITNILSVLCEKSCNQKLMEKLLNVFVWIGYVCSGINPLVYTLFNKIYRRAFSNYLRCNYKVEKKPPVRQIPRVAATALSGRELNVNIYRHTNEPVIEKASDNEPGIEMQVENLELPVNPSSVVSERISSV

[2] = molecular target: 5-hydroxytryptamine receptor 2B (Rattus norvegicus, UniProt P30994)
Sequence of 5-hydroxytryptamine receptor 2B (P30994 whole entry): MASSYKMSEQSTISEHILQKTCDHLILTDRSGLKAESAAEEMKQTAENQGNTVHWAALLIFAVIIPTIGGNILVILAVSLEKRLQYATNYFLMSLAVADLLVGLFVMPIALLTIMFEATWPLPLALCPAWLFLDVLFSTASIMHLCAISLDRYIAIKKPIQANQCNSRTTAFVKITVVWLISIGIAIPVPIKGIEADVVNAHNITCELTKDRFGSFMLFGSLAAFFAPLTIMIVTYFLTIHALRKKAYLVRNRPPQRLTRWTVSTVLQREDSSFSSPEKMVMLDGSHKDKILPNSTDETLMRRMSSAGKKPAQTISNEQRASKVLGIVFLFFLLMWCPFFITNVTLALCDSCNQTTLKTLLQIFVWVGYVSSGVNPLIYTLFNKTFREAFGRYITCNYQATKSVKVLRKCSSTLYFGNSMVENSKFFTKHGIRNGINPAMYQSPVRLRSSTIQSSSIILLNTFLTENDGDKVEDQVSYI

[3] = molecular target: T2, 5-hydroxytryptamine receptor 2C (Rattus norvegicus, UniProt P08909)
T2 sequence (P08909 whole entry): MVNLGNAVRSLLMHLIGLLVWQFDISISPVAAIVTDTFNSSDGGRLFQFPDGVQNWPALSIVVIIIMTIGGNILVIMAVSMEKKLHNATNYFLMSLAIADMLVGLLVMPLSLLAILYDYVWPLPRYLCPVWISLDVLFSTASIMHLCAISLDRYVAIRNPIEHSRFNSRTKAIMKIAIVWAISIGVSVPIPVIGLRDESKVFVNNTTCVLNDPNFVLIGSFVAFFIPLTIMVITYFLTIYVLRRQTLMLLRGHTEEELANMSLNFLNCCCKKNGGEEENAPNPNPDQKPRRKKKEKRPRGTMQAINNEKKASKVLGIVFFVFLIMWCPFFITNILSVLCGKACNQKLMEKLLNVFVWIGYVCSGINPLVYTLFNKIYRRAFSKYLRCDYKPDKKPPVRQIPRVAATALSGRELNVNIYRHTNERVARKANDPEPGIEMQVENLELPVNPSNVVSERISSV

Row | Compound | pKi [1] | pKi [2] | pKi [3]
1 | CC(N)Cc1c[nH]c2ccc(OCc3cccs3)cc12 (stereo not drawn) [NSC_5311036] | 6.50 | 7.90 | –
2 | COC(=O)[C@@H]1[C@H]2C[C@H]3c4[nH]c5ccccc5c4CCN3C[C@@H]2CC[C@@H]1O [yohimbic acid methyl ester] | – | – | 5.30
